Measured values reported in the OligoGym collection.
After the bases stand the sugars from the 5' end (letter, count) and the backbone: PS all phosphorothioate, else s phosphorothioate and o phosphodiester by linkage. Methylation of C is not given here. e = 2'-O-(2-methoxyethyl) (MOE); k = constrained ethyl (cEt); d = 2'-deoxy (DNA); m = 2'-O-methyl

Target: HSD17B13
Conditions: ASO, HepaRG

Sequence	target mRNA inhibition (1 µM)	also measured
TCTTATGTAATAGCCA (sugars k3 d10 k3, PS)	77%	target mRNA inhibition (0.02 µM): 0%; target mRNA inhibition (0.078 µM): 2%; target mRNA inhibition (0.313 µM): 35%; target mRNA inhibition (1.25 µM): 74%; target mRNA inhibition (5 µM): 91%
ATACGATGGAACAAAA (sugars k3 d10 k3, PS)	27%	–
TCATTTTTAATACGAC (sugars k3 d10 k3, PS)	48%	–
TGTGGCATGGCTACAG (sugars kkdddddddddkekek, PS)	22%	–
TAGTGCCAAACCAATG (sugars k3 d1 m1 d8 k3, PS)	55%	–
TAGTTAGAATAGTCTT (sugars k3 d10 k3, PS)	23%	–
ACCAAACTTCCAGCAG (sugars k3 d10 k3, PS)	31%	–
GGTGCTGAGAAGATCG (sugars k3 d10 k3, PS)	33%	–
CGGCTGGATATACTGT (sugars k3 d10 k3, PS)	35%	–
TTAATGCCACCCTACC (sugars k3 d10 k3, PS)	19%	–
GATTGGAATGCTACTT (sugars k3 d1 m1 d8 k3, PS)	48%	–
TCTCTGGGACCAAGGA (sugars k3 d10 k3, PS)	56%	–
AACTAAACATGACAGC (sugars k3 d10 k3, PS)	72%	target mRNA inhibition (0.02 µM): 8%; target mRNA inhibition (0.078 µM): 26%; target mRNA inhibition (0.313 µM): 40%; target mRNA inhibition (1.25 µM): 65%; target mRNA inhibition (5 µM): 85%
ATGAGATTACCCCTGG (sugars k3 d10 k3, PS)	62%	–
AGGTAAGGAATCCCTT (sugars k3 d10 k3, PS)	0%	–
TATCAACCTGCACACC (sugars k3 d10 k3, PS)	62%	–
TGCAAGATTTACTTCC (sugars k3 d10 k3, PS)	45%	–
TGCCAAACCAATGTTT (sugars kkdddddddddkekek, PS)	61%	–
AGTTTTTAAGAGGCAT (sugars k3 d10 k3, PS)	75%	–
TTAGCTGTGCACTCAT (sugars k3 d10 k3, PS)	61%	–
GCAAGCCAACAGAGAG (sugars k3 d1 m1 d8 k3, PS)	26%	–
GAGTGCATCTTAAGAT (sugars k3 d9 k3 e1, PS)	34%	–
ATGTAGTGGGAGTCGG (sugars k3 d10 k3, PS)	72%	–
TATATGTTGATGTTAC (sugars k3 d10 k3, PS)	34%	–

Sequence	target mRNA inhibition (1 µM)	also measured
TGGCATGGCTACAGAT (sugars k3 d9 k3 e1, PS)	68%	target mRNA inhibition (0.02 µM): 26%; target mRNA inhibition (0.078 µM): 22%; target mRNA inhibition (0.313 µM): 39%; target mRNA inhibition (1.25 µM): 75%; target mRNA inhibition (5 µM): 70%
TGATACACCAATGCAG (sugars k3 d10 k3, PS)	44%	–
GTTTTGGGCTAATGAA (sugars kkdddddddddkekek, PS)	42%	–
TCTATAGCTAAGTATA (sugars k3 d10 k3, PS)	0%	–
GTTAGCAAAACACTTG (sugars k3 d10 k3, PS)	71%	target mRNA inhibition (0.02 µM): 1%; target mRNA inhibition (0.078 µM): 15%; target mRNA inhibition (0.313 µM): 44%; target mRNA inhibition (1.25 µM): 68%; target mRNA inhibition (5 µM): 81%
TGATGTAGTGGGAGTC (sugars kkdddddddddkekek, PS)	46%	–
CTAGGGAGGAGGTACT (sugars k3 d10 k3, PS)	29%	–
TTACGACTTCATCTGT (sugars k3 d10 k3, PS)	36%	–
TGTCCACCTTTAAATG (sugars k3 d10 k3, PS)	29%	–
TGCATTAATGCCACCC (sugars k3 d10 k3, PS)	22%	–
CTGGTTCAGTCCTTGT (sugars k3 d10 k3, PS)	63%	–
CGGCACTCAGCTGCAG (sugars k3 d10 k3, PS)	55%	–
CTGTGGCATGGCTACA (sugars k3 d9 k3 e1, PS)	58%	–
ACCAAGTAGCTTACAT (sugars k3 d10 k3, PS)	2%	–
AATATAGAGGGTCCAC (sugars k3 d10 k3, PS)	7%	–
TTAAGTACTGTGAGAC (sugars k3 d10 k3, PS)	35%	–
TTTCGAATCATTAAGC (sugars k3 d10 k3, PS)	30%	–
GCATAAGTTACCAGAG (sugars k3 d10 k3, PS)	79%	target mRNA inhibition (0.02 µM): 0%; target mRNA inhibition (0.078 µM): 0%; target mRNA inhibition (0.313 µM): 40%; target mRNA inhibition (1.25 µM): 51%; target mRNA inhibition (5 µM): 85%
TAGGAACATTCCCTCT (sugars k3 d10 k3, PS)	24%	–
CATACCACTCTTCTCA (sugars k3 d10 k3, PS)	24%	–
TAGAACTGTGTTGCTT (sugars k3 d10 k3, PS)	78%	target mRNA inhibition (0.02 µM): 14%; target mRNA inhibition (0.078 µM): 27%; target mRNA inhibition (0.313 µM): 57%; target mRNA inhibition (1.25 µM): 78%; target mRNA inhibition (5 µM): 90%
ATTATTCACCACGATT (sugars k3 d10 k3, PS)	29%	–
GTATCTTATAAGACTA (sugars k3 d1 m1 d8 k3, PS)	79%	target mRNA inhibition (0.02 µM): 13%; target mRNA inhibition (0.078 µM): 26%; target mRNA inhibition (0.313 µM): 39%; target mRNA inhibition (1.25 µM): 66%; target mRNA inhibition (5 µM): 84%
TCACTATATTGCATTC (sugars k3 d10 k3, PS)	35%	–

Sequence	target mRNA inhibition (1 µM)	also measured
CCATAATAATAGCTCT (sugars k3 d10 k3, PS)	48%	–
TCGGTCACCTTTCATA (sugars k3 d9 k3 e1, PS)	72%	–
TGTCCTAGGATGTTGA (sugars k3 d10 k3, PS)	41%	–
AACTTCATAGTGGACT (sugars k3 d9 k3 e1, PS)	70%	–
TCAGTATCCCCTCAAA (sugars k3 d10 k3, PS)	64%	–
AATAGAGTCGGTCACC (sugars k3 d10 k3, PS)	58%	–
TCATTTAGCAGCTTGG (sugars k3 d10 k3, PS)	79%	target mRNA inhibition (0.02 µM): 12%; target mRNA inhibition (0.078 µM): 31%; target mRNA inhibition (0.313 µM): 43%; target mRNA inhibition (1.25 µM): 87%; target mRNA inhibition (5 µM): 84%
TAGCTTTTGTCCACCT (sugars k3 d9 k3 e1, PS)	65%	–
TATAACTACAAGAGGT (sugars k3 d10 k3, PS)	46%	–
TTGCACCGTTTTGGGC (sugars k3 d1 m1 d8 k3, PS)	50%	–
TTCGAATCATTAAGCT (sugars k3 d10 k3, PS)	63%	–
AAGAGTCAGTATCCTC (sugars k3 d10 k3, PS)	63%	–
TTTCGGCACTCAGCTG (sugars k3 d10 k3, PS)	29%	–
TCAGTAGAGAGCATAA (sugars k3 d10 k3, PS)	52%	–
GAGTCGGTCACCTTTC (sugars k3 d10 k3, PS)	82%	target mRNA inhibition (0.02 µM): 0%; target mRNA inhibition (0.078 µM): 30%; target mRNA inhibition (0.313 µM): 55%; target mRNA inhibition (1.25 µM): 82%; target mRNA inhibition (5 µM): 82%
TCTACACTAATATTGA (sugars k3 d10 k3, PS)	21%	–
CTTGGGTCCATTGTTT (sugars k3 d10 k3, PS)	44%	–
TATAGGTAGCTAATGT (sugars k3 d10 k3, PS)	31%	–
TAGTGGACTTCATTAG (sugars k3 d1 m1 d8 k3, PS)	34%	–
GAATATATACTAGGAT (sugars k3 d10 k3, PS)	5%	–
ACCCGCCCTTAAGTCA (sugars k3 d10 k3, PS)	48%	–
TCATCGATGGAAGAAG (sugars k3 d10 k3, PS)	24%	–
AGACTTTGAGACTCTT (sugars k3 d9 k3 e1, PS)	41%	–
AGAAGGACTTTCATAG (sugars k3 d10 k3, PS)	46%	–

Sequence	target mRNA inhibition (1 µM)	also measured
TGCCAACACTAATCTC (sugars k3 d10 k3, PS)	30%	–
CTCTAAAGCAGGCTAC (sugars k3 d10 k3, PS)	51%	–
AATCCCAACCAAACTT (sugars k3 d9 k3 e1, PS)	13%	–
AAGTUAGCCCCCAGGA (sugars k3 d1 m1 d8 k3, PS)	0%	–
ACTCCCCAAACATGGA (sugars k3 d10 k3, PS)	48%	–
CCTCUAAGTTAGCCCC (sugars k3 d1 m1 d8 k3, PS)	8%	–
CTCCATAATAATAGCT (sugars k3 d10 k3, PS)	59%	–
GTCTAAACATCTCTGG (sugars k3 d10 k3, PS)	58%	–
TATGAAGTTAGTATAG (sugars k3 d9 k3 e1, PS)	13%	–
TCCTCCACACCGCGCT (sugars k3 d10 k3, PS)	20%	–
TCACAATCTAGCAACC (sugars k3 d10 k3, PS)	4%	–
TTAAAATAGAGTCGGT (sugars k3 d10 k3, PS)	65%	–
ATAAAGCTTTGCAGCA (sugars k3 d10 k3, PS)	54%	–
GAGGTATGTCATACTT (sugars k3 d10 k3, PS)	29%	–
CTAAATTTCAGTACCC (sugars k3 d10 k3, PS)	33%	–
GTTGTTAATGTAGTGT (sugars k3 d10 k3, PS)	77%	target mRNA inhibition (0.02 µM): 0%; target mRNA inhibition (0.078 µM): 18%; target mRNA inhibition (0.313 µM): 42%; target mRNA inhibition (1.25 µM): 67%; target mRNA inhibition (5 µM): 90%
GTTTAACTTTCCTCCG (sugars k3 d10 k3, PS)	30%	–
ATTAGATGGTAAGGAG (sugars k3 d10 k3, PS)	4%	–
TTAAACCTTCCCTGTG (sugars k3 d10 k3, PS)	22%	–
ATGTTAGGACCCAGTC (sugars k3 d10 k3, PS)	60%	–
TTTGGTGGACTTCAGA (sugars k3 d10 k3, PS)	16%	–
